Laboratory results: ChEMBL document CHEMBL1201862, “PubChem BioAssay data set” (2004)
Calls of active or inactive are those of the source.

Legend:
[1] = target: Hepatocyte nuclear factor 4-alpha (Homo sapiens, UniProt P41235); assay type: functional, cell-based;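 further: biochemical luminescence-based dose-response counterscreen measuring inhibition of HNF4 dimerization, run alongside a screen for blockers of ABHD5–perilipin-5 interaction; split luciferase complementation of HNF4 fusion proteins in cell lysate measuring dimerization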
Chain of Hepatocyte nuclear factor 4-alpha (P41235 whole entry, the tested form may be a part): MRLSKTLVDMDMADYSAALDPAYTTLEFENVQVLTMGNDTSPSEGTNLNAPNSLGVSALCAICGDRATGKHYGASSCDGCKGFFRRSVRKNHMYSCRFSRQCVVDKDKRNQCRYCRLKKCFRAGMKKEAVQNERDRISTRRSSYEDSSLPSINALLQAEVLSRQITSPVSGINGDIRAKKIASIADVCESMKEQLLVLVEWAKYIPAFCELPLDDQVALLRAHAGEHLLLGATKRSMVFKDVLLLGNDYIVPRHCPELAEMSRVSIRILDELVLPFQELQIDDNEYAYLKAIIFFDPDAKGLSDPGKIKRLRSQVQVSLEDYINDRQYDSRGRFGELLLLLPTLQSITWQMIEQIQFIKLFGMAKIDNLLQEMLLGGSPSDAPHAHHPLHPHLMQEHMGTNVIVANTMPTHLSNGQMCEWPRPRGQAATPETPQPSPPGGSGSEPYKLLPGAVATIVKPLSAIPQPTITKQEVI

[2] = inhibition of ARNT PAS-B/TACC3 complex formation – biochemical, AlphaScreen, cherry-picked samples, confirmation (AID 651703); assay type: functional, Homo sapiens;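 further: His-tagged ARNT PAS-B domain paired with GST-TACC3 E629A dimer coactivator fragment; potency of inhibitors that break up the complex and lower AlphaScreen signal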
[3] = target: T1, Ubiquitin-conjugating enzyme E2 N (Homo sapiens, UniProt P61088); assay type: functional;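 further: Dose-response confirmation in a TR-FRET assay detecting UBC13-driven polyubiquitin chain formation, inhibition measured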
T1 sequence (P61088 whole entry): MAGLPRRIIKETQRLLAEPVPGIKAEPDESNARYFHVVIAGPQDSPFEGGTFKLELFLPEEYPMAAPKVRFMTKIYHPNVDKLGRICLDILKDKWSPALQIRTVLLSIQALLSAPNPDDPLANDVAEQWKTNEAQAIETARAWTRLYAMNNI

Melanocortin receptor 4 = Melanocortin receptor 4 (Homo sapiens, UniProt P32245); assay type: functional, cell-based;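 further: Cell-based assay with luminescence read-out, confirmatory dose-response testing for agonist activity of biased ligands at MC4R; human U2OS cells with tagged receptor and beta-arrestin; potency of agonists that increase receptor coupling to beta-arrestin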
Chain of Melanocortin receptor 4 (P32245 whole entry): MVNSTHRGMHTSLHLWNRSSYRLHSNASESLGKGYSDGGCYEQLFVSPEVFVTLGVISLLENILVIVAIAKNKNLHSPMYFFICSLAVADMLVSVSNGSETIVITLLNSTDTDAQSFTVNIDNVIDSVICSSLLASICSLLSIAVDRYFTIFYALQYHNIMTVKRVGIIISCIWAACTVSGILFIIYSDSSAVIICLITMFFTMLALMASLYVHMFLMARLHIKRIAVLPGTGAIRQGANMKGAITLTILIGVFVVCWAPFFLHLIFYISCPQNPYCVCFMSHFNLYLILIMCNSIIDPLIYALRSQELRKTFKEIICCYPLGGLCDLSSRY

[4] = Trypanosoma cruzi growth suppression in host cells – NIH3T3 host cells, beta-gal luminescence, confirmation (AID 2044); assay type: functional, cell-based;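 further: intracellular parasites grown in NIH/3T3 mouse fibroblasts as host cells; luminescent beta-galactosidase reporter signal from transgenic T. cruzi replicating inside host cells; inhibitors lower the luminescence signal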
[5] = NIH3T3 cell viability loss – ATP luminescence, mouse fibroblasts, counter-screen, dose response (AID 2010); assay type: functional, cell-based;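 further: cells exposed to compound for about 90 hours before reading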
[6] = target: Neurotensin receptor type 1 (Homo sapiens, UniProt P30989); assay type: functional;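 further: Image-based confirmatory dose-response assay measuring agonist activity at NTR1; NTR1-expressing U2OS osteosarcoma cells imaged for beta-arrestin GFP spot formation; agonist potency where compounds increase beta-arrestin recruitment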
Chain of Neurotensin receptor type 1 (P30989 whole entry): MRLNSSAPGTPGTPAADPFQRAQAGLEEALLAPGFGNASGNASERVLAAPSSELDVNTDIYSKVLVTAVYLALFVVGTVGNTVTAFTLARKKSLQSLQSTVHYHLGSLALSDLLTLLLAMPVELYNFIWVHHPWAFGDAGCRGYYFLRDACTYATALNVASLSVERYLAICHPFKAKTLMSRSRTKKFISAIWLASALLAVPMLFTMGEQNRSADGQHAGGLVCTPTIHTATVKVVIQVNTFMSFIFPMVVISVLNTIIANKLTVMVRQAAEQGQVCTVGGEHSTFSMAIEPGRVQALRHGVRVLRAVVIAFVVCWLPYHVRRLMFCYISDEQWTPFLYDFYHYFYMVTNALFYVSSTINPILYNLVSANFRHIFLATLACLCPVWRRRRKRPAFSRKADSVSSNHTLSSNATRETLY

[7] = bead-based luminescence quenchers, dual-tagged ARNT – biochemical, AlphaScreen, cherry-pick, artefact control for ARNT-TACC3 interaction inhibitor project, dose response (AID 651705); assay type: functional;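 further: AlphaScreen bead proximity signal that flags compounds interfering with the detection technology; potency reflects signal decrease which marks the compound as an assay artifact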
Protein Wnt-3a = Protein Wnt-3a (Mus musculus, UniProt P27467); assay: antagonism of Wnt3a pathway luciferase reporter – Wnt-LIGHT cells, luminescence, selectivity assay for Gli-SUFU antagonist project, dose response (AID 651570); assay type: functional; conditions: read-out: IC50_Mean;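 further: Wnt-LIGHT reporter cells stimulated with conditioned medium from Wnt3a-producing cells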
Chain of Protein Wnt-3a (P27467 whole entry): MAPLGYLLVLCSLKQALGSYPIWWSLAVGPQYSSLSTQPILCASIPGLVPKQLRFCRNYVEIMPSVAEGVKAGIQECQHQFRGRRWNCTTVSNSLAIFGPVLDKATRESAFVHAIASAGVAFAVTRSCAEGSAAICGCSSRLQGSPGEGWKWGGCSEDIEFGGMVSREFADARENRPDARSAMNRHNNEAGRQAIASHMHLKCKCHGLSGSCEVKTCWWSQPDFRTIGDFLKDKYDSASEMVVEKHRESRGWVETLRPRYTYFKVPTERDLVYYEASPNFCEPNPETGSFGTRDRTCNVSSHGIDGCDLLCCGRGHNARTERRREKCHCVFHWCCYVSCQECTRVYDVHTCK

[8] = non-specific 3'UTR reporter inhibition in Clone20-Shn3RL – cell-based, Renilla luciferase, cherry-picked, counter-screen for Shn3 inhibitor project, dose response (AID 624133); assay type: functional
[9] = loss of viability in HepG2 cells – cell-based, CellTiter-Glo, cherry-picked, cytotoxicity control for Shn3 inhibitor project, dose response (AID 624134); assay type: functional
Cytochrome P450 2D6 = Cytochrome P450 2D6 (Homo sapiens, UniProt P10635);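 further: CYP2D6 member of a cytochrome P450 panel assay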
Chain of Cytochrome P450 2D6 (P10635 whole entry): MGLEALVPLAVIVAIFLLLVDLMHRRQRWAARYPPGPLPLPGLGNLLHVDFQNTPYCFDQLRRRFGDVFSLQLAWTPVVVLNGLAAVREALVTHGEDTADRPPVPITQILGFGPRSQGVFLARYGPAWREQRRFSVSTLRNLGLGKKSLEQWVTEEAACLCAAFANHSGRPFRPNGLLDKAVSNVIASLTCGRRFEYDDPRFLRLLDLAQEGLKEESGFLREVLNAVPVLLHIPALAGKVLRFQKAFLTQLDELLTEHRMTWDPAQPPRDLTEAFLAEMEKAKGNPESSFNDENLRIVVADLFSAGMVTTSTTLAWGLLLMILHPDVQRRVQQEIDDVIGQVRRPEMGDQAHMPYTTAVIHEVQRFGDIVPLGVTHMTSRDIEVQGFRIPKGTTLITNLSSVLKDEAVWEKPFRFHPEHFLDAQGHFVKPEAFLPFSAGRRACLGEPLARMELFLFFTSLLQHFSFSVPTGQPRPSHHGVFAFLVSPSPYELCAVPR

[10] = reduction of Shn3 3'UTR-driven luciferase in osteoblasts – cell-based, Clone20 osteoblasts, firefly luciferase, cherry-picked, dose response (AID 624132); assay type: functional;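 further: firefly luciferase luminescence from reporter carrying the Shn3 3'UTR in osteoblasts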
[11] = target: Photoreceptor-specific nuclear receptor (Homo sapiens, UniProt Q9Y5X4); assay type: functional, cell-based;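 further: CHO-S cells with Gal4-NCOR and VP16-NR2E3 two-hybrid luciferase reporter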
Chain of Photoreceptor-specific nuclear receptor (Q9Y5X4 whole entry, the tested form may be a part): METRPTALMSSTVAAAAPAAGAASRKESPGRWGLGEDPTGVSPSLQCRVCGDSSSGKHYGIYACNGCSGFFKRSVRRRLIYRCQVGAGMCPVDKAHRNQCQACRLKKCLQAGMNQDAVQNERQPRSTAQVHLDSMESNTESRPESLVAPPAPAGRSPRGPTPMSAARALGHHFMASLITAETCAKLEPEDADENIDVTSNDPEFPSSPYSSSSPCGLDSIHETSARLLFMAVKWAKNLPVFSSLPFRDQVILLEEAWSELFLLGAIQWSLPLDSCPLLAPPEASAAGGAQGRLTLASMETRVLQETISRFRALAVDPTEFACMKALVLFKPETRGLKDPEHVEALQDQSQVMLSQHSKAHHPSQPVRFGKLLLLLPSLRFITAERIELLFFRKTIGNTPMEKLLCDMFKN

[12] = test system: Streptococcus sp. 'group A'; assay: Streptococcus pyogenes SK(-)GAS viability under kanamycin – luminescence, BacTiterGlo, confirmation, counter-screen for streptokinase expression inhibitor project, dose response (AID 1900); assay type: functional, organism-based
Streptokinase A = target: T2, Streptokinase A (Streptococcus pyogenes serotype M1, UniProt P10520); assay: viability-normalized secreted streptokinase activity reduction – plasminogen activation absorbance, OD405, dose response (AID 1914); assay type: functional, Streptococcus pyogenes M1 GAS;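 further: secreted streptokinase activity via plasminogen activation per viability signal from cell pellet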
T2 sequence (P10520 whole entry): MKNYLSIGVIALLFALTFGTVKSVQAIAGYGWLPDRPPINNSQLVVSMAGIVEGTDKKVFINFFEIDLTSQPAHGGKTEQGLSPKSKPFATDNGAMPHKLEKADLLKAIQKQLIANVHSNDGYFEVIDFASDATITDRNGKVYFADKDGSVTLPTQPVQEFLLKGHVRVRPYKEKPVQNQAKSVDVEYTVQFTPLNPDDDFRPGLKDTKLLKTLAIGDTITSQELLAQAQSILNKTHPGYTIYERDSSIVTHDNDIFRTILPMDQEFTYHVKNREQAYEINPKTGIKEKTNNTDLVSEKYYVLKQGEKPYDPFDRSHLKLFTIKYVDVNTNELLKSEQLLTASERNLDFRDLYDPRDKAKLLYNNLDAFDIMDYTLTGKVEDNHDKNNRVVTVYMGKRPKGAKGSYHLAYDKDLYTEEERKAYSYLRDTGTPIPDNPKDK

Streptococcus = assay: GAS UMAA2166 growth inhibition – luminescence, BacTiterGlo, counter-screen for streptokinase expression inhibitor project, dose response (AID 1915); assay type: functional, organism-based;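 further: potency for reduction of bacterial viability or growth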
[13] = target: T3, Carboxy-terminal domain RNA polymerase II polypeptide A small phosphatase 1 (Homo sapiens, UniProt Q9GZU7); assay: CTDSP1 inhibitors, concentration-response, biochemical, absorbance readout, ultra-high-throughput screen actives (AID 540297); assay type: functional
T3 sequence (Q9GZU7 whole entry): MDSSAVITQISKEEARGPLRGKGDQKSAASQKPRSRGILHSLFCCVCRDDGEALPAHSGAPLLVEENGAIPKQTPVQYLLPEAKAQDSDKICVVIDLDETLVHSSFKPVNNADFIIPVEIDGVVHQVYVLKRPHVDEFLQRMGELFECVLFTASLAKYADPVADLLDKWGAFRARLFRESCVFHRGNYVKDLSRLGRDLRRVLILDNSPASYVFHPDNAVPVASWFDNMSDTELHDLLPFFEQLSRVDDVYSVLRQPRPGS

[14] = target: ADP-ribosylation factor GTPase-activating protein 1 (Rattus norvegicus, UniProt Q62848); assay: Fluorescence polarization-based biochemical high throughput dose response screening assay to identify inhibitors of ADP-ribosylation factor GTPase activating protein 1 (ARFGAP1).; assay type: functional
Chain of ADP-ribosylation factor GTPase-activating protein 1 (Q62848 whole entry): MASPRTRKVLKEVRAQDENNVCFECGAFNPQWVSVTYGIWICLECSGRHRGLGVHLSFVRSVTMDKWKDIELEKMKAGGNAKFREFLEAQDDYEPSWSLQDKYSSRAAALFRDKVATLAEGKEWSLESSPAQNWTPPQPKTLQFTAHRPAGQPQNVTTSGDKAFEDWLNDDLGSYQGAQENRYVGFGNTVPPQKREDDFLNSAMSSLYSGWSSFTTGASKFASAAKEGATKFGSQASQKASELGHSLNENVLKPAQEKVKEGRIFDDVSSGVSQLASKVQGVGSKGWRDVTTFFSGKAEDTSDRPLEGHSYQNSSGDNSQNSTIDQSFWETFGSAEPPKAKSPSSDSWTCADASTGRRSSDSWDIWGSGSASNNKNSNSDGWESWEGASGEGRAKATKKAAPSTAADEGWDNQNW

## Cc1cccc(C)c1NC(=O)C(c1cccc2ccccc12)n1c(=O)c(-c2ccco2)nc2ccccc21 (centres undefined)
[1]
  IC50: 2.56 µM (active)

## O=C1c2cccc3cccc(c23)C(=O)N1CCCCCc1nnc(S)o1
[2]
  AC50: 102 µM (active)

## CCCOC(=O)c1cccc(Nc2nc(-c3cccnc3)nc3ccccc23)c1
[3]
  IC50: > 20 µM (inactive)
Melanocortin receptor 4
  EC50: > 89.3 µM (inactive)
[4]
  EC50: 0.534 µM (active)
[5]
  EC50: 9.22 µM (active)
[6]
  EC50: > 40 µM (inactive)

## Nc1nc(CN2CCCCCC2)nc(Nc2ccccc2)n1
[7]
  AC50: 133 µM (active)

## O=c1c2ccccc2nc2n1C(CSCc1cccc(C(F)(F)F)c1)CS2 (centres undefined)
Protein Wnt-3a
  IC50: 2.01 µM (active)
[8]
  AC50: 0.863 µM (active)
[9]
  AC50: 3.22 µM (active)
Cytochrome P450 2D6
  AC50: 7.08 µM (inconclusive)
[10]
  AC50: 1.68 µM (active)

## CCN(c1ccccc1)S(=O)(=O)c1ccc(C(=O)Nc2nnc(CSC)o2)cc1
[11]
  IC50: 8.64 µM (active)
[12]
  EC50: 3.5 µM (active)
Streptokinase A
  EC50: > 150 µM (not active)
Streptococcus
  EC50: 15 µM (active)

## O=C(N/N=C/c1sc(=O)n(Cc2ccc(Br)cc2)c1Cl)c1ccco1
[13]
  IC50: 3.55 µM (active)
[14]
  IC50: 34.3 µM (inactive)
